Laboratory results: article PMC10257182, “Discovery of senolytics using machine learning” (Nature Communications, 2023)
“And” between values parts separate entries of the source, which are not always exact repeats. Equal values may be shown once.

How the values were obtained:
Format in all cases: cell-based, human
[1] = test system: non-senescent control IMR90 ER:RAS cells; assay: Nuclei count (Hoechst, high content imaging) senolytic assay, OIS model, non-senescent control cells; conditions: for Mean % Cell Survival: Control, mean n=3 (Fig 3C); for % Cell Survival: control
Procedure, shortened: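 We compared total nuclei counts between senescent and non-senescent IMR90 ER:RAS cells after 72 h compound exposure (10 nM–10 μM). Hoechst staining followed fixation and permeabilisation; ouabain served as senolytic positive control.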

[2] = test system: proliferating IMR90 cells; assay: BrdU incorporation proliferation assay
Protocol: 5-bromo-2′-deoxyuridine (BrdU) incorporation was used to measure the number of cells actively replicating DNA. Cells were incubated with 10 μM BrdU (85811, Sigma) for 18 h. After that, cells were fixed with 4% Paraformaldehyde, permeabilised, blocked and then stained for immunofluorescence using BrdU primary antibody (555627 BD Pharmigen), Alexa fluor secondary for detection, and DAPI staining for cell counting. Acquisition was done with a Nikon TI2 microscope and analysis was performed with ImageJ for cell counting.

[3] = test system: NOXA mRNA in senescent IMR90 ER:RAS cells; assay: NOXA mRNA expression by RT-qPCR, OIS; conditions: ER:RAS cells, 10 nM; relative to ER:STOP DMSO = 1; individual replicate values
Protocol: Total RNA was isolated using RNAeasy kit (Quiagen). cDNA was generated with reverse transcriptase iScript (Bio-Rad). RT-qPCR was performed using SYBR Select Master Mix (Applied Biosystems) in OneStepPlus detection system (Applied Biosystems). Oligos for amplification were: NOXA Fw-[…] and Rv-[…]; b-ACTIN Fw-[…] and Rv-[…]; IL1a Fw-[…] and Rv- […]; IL1b Fw-[…] and Rv- […]; IL8 Fw-[…] and Rv-[…]; p16 Fw-CGGTCGGAGGCCGATCCAG and Rv- […]; p21Fw-[…] and Rv- […].

CO[C@H]1C[C@H](O[C@H]2CC[C@]3(C)[C@H]4CC[C@]5(C)[C@@H](C6=CC(=O)OC6)CC[C@]5(O)[C@@H]4CC[C@]3(O)C2)O[C@H](C)[C@H]1O[C@@H]1O[C@H](CO)[C@@H](O)[C@H](O)[C@H]1O [Periplocin, periplocin]
Mean % Cell Survival ([1]; log (dose) [M] -5, 72 h): 18.4295%
Mean % Cell Survival ([1]; log (dose) [M] -5.33, 72 h): 19.4604%
Mean % Cell Survival ([1]; log (dose) [M] -5.66, 72 h): 23.5452%
Mean % Cell Survival ([1]; log (dose) [M] -6, 72 h): 29.0681%
Mean % Cell Survival ([1]; log (dose) [M] -6.33, 72 h): 43.2104%
Mean % Cell Survival ([1]; log (dose) [M] -6.66, 72 h): 52.7161%
Mean % Cell Survival ([1]; log (dose) [M] -7, 72 h): 63.4586%
Mean % Cell Survival ([1]; log (dose) [M] -7.33, 72 h): 71.1117%
Mean % Cell Survival ([1]; log (dose) [M] -7.66, 72 h): 89.3621%
Mean % Cell Survival ([1]; log (dose) [M] -8, 72 h): 91.9585%
IC50 ([1]; OIS model, non-senescent IMR90 ER:RAS, nuclei count, 72 h): 0.3 µM
% Cell Survival ([1]; log (dose) [M] -5, individual replicates (Fig 3D)): 15.9071% and 11.1013% and 28.2801%
% Cell Survival ([1]; log (dose) [M] -5.33, individual replicates (Fig 3D)): 20.9802% and 15.9471% and 21.4539%
% Cell Survival ([1]; log (dose) [M] -5.66, individual replicates (Fig 3D)): 25.1075% and 20.6167% and 24.9113%
% Cell Survival ([1]; log (dose) [M] -6, individual replicates (Fig 3D)): 32.8461% and 26.2555% and 28.1028%
% Cell Survival ([1]; log (dose) [M] -6.33, individual replicates (Fig 3D)): 39.8108% and 40.3524% and 49.4681%
% Cell Survival ([1]; log (dose) [M] -6.66, individual replicates (Fig 3D)): 51.9347% and 55.859% and 50.3546%
% Cell Survival ([1]; log (dose) [M] -7, individual replicates (Fig 3D)): 57.6956% and 62.3789% and 70.3014%
% Cell Survival ([1]; log (dose) [M] -7.33, individual replicates (Fig 3D)): 64.4884% and 71.5419% and 77.305%
% Cell Survival ([1]; log (dose) [M] -7.66, individual replicates (Fig 3D)): 94.8409% and 82.7313% and 90.5142%
% Cell Survival ([1]; log (dose) [M] -8, individual replicates (Fig 3D)): 93.6371% and 90.7489% and 91.4894%
% BrdU positive cells, mean (Test details, Mean 2) ([2]; IMR90 cells, n 4): 68.52%
% BrdU positive cells ([2]; IMR90 cells, single replicates (SUP FIG 9G)): 63.29% and 64.13% and 67.53% and 79.11%
proliferation by BrdU incorporation, in words ([2]; proliferating IMR90 cells, 10 nM): none of the cardiac glycosides induced unwanted changes in proliferation
NOXA mRNA expression [3]: 6.84 and 6.41 and 10.09 and 3.28
